Experimental data as given in EP0340307A1, “COMPOSITION OF POLYMER DIFFUSION MATRIX FOR TRANSDERMALLY INTRODUCING PHARMACEUTICAL SUBSTANCES” (priority 1987, dated 1989).
Read-outs that look alike come from different tables or passages of the source.

Test: In vitro transdermal delivery of the drug from the diffusion matrix through human cadaver skin epidermis into Ringer solution
From the text: Es wurde von uns eine Diffusionsmatrix "in vitro" untersucht, die auf der Grundlage der erfindungsgemäßen Zusammensetzung hergestellt wurde.
So wird, beispielsweise, auf eine Adhäsionsschicht einer Diffusionsmatrix mit runder Form und einem Radius von 1 cm (Fläche 3,14 cm²), die auf der Grundlage einer Zusammensetzung hergestellt wird, die 26,7 g Propranolol, 40 g Polyäthylenglykol mit einer Molekularmasse von 400 und 100 g Polyvinylpyrrolidon enthält, ein Probestück aus der Epidermis der Leichenhaut eines Menschen (mit der Außenoberfläche der Epidermis an die Diffusionsmatrix) aufgeklebt. Das Laminat der Diffusionsmatrix mit der Hautepidermis taucht man in die in einem Magnetrührer zu vermischende Ringer-Lösung ein. In den vorgegebenen Zeitabständen nimmt man aus der Lösung Proben ab, in denen man den Gehalt an Propranolol mit Hilfe der Spektrofluorometrie ermittelt, wobei die vorher aufgebauten Eichkurven genutzt werden.

SMILES | Geschwindigkeit des transdermalen Eintritts des Arzneistoffes aus der Matrix (drug contained in the named matrix, through cadaver skin) | Geschwindigkeit der transdermalen Zuführung aus einer Matrix, die einen Füllstoff enthält | Geschwindigkeit des transdermalen Eintritts des Arzneistoffes aus der Matrix
O=[N+]([O-])OCC(CO[N+](=O)[O-])O[N+](=O)[O-] [Nitroglyzerin] | 39 µg/cm².h | – | –
CC(C)NCC(O)COc1cccc2ccccc12 (stereo not drawn) [Propranolol] | – | 55 µg/cm².h | 47 µg/cm².h
